# Laboratory results: US20260265538A1, “Aqueous Industrial Product Stabilized Against Microbial Contamination” (Thor GmbH, priority 2023, published 2026)
# Tested on: Bacteria mixture 2 (alkaliphilic bacteria of the Nesterenkonia & Alkalibacterium genus)
# Experiment: Repetitive stress test of paints with bacteria mixture 2, semiquantitative evaluation (examples 4 and 5)
# Format: cell-based
# Design: key to Bacterial growth after inoculation: 0: No growth; Minimal growth, 1 to 10 colonies visible over the entire streak; 2: Light growth, maximum 100 colonies; Moderate growth, maximum 300 to 400 colonies; Uniform growth, >400 colonies, single colonies still clearly recognizable; 5: Heavy growth, too many colonies to count, but no growth over the entire streak; 6: Full growth, barely any single colonies still apparent, growth over the entire streak
# Conditions: Table 4
# From the text: Paints 1 to 3 were mixed and homogenized with various concentrations of the guanidinium salts to be tested.
# The batches obtained of the paint thus prepared were inoculated repeatedly with a mixture of different wild-type bacterial strains that are of practical relevance with regard to contamination. These bacteria had previously been isolated from commercial emulsion paints containing conventional preservatives (bacteria mixture 1, Pseudomonas genus), which are microbially contaminated in practice, and commercial so-called preservative-free alkaline emulsion paints (bacteria mixture 2, alkaliphilic bacteria of the Nesterenkonia & Alkalibacterium genus), which are microbially contaminated in practice.
# • Nesterenkonia sp. DSM 108520 • Nesterenkonia sp. DSM 108521 • Alkalibacterium pelagium DSM 108522 • Nesterenkonia massiliensis DSM 110679 • Nesterenkonia sp. DSM 108519
# The inoculum was added to the respective sample in each inoculation at 2% (v/w) as a fresh cell suspension in a physiological saline solution (0.9% NaCl). The cell count of the added inoculum in example 1 was 10^5/ml, in examples 2 to 5 10^9/ml, and in example 6 10^6/ml, each in equal portions consisting of the individual bacterial strains. The cell suspension was produced by growing the individual bacteria at 30° C. for 24 h in liquid culture on a shaker. The medium used to grow the bacteria from bacteria mixture 1 was Müller-Hinton liquid medium. Bacteria from bacteria mixture 2 were grown in Müller-Hinton liquid medium that had been adjusted to pH 9.5-9.7 with an alkaline buffer solution beforehand. After growing, the individual liquid cultures were centrifuged, and the cells were resuspended in physiological saline solution. In order to adjust the mixture to the desired cell count, the individual bacteria suspensions, if necessary, were diluted accordingly before being combined with saline solution. The cell count of the inoculum was determined in each case by chamber counting.
# In examples 2 to 6, what is called a repetitive stress test with bacteria was conducted by inoculating the samples at particular time intervals repeatedly with a bacteria suspension having a cell count of 10^9/ml (2% v/w) and monitoring the evolution of the bacteria by a semiquantitative evaluation method. After each inoculation, the samples were incubated at 30° C. for 6 days (bacteria mixture 1 and 3) or 7 and 14 days (bacteria mixture 2), and after these periods bacterial infestation was evaluated semiquantitatively in each case. For this purpose, an aliquot was taken from each sample after homogenization using a sterile plastic inoculation loop (10 μl) and streaked evenly on agar plates (bacteria mixture 1 and 3 on tryptic soy agar, bacteria mixture 2 on DSMZ 31 alkaline nutrient agar). The streaked agar plates were then incubated at 30° C. for 48 h (bacteria mixture 1 and 3) or 5 to 7 days (bacteria mixture 2). After incubation, the bacterial colonies grown on the agar plates were visually evaluated and quantified according to the following scheme:
# A total of 3 inoculation cycles was performed in each repetitive stress test.
# Inoculation 2% (w/v) with Bacteria Mixture 2, 10^9 CFU/ml
smiles,measurement,setting,value
N=C(N)N.N=C(N)N.O=C(O)O [guanidine carbonate],Bacterial growth after inoculation,"Paint 1, +0.1% guanidine carbonate (656 ppm guanidine), pH 9.1, 1. inoculation, 7 d",0/0
same,Bacterial growth after inoculation,"Paint 1, +0.1% guanidine carbonate (656 ppm guanidine), pH 9.1, 1. inoculation, 14 d",0/0
same,Bacterial growth after inoculation,"Paint 1, +0.1% guanidine carbonate (656 ppm guanidine), pH 9.1, 2. inoculation, 7 d",0/0
same,Bacterial growth after inoculation,"Paint 1, +0.1% guanidine carbonate (656 ppm guanidine), pH 9.1, 2. inoculation, 14 d",0/0
same,Bacterial growth after inoculation,"Paint 1, +0.1% guanidine carbonate (656 ppm guanidine), pH 9.1, 3. inoculation, 7 d",6/6
same,Bacterial growth after inoculation,"Paint 1, +0.1% guanidine carbonate (656 ppm guanidine), pH 9.1, 3. inoculation, 14 d",6/6
same,Bacterial growth after inoculation,"Paint 1, +0.15% guanidine carbonate (984 ppm guanidine), pH 9.4, 1. inoculation, 7 d",0/0
same,Bacterial growth after inoculation,"Paint 1, +0.15% guanidine carbonate (984 ppm guanidine), pH 9.4, 1. inoculation, 14 d",0/0
same,Bacterial growth after inoculation,"Paint 1, +0.15% guanidine carbonate (984 ppm guanidine), pH 9.4, 2. inoculation, 7 d",0/0
same,Bacterial growth after inoculation,"Paint 1, +0.15% guanidine carbonate (984 ppm guanidine), pH 9.4, 2. inoculation, 14 d",0/0
same,Bacterial growth after inoculation,"Paint 1, +0.15% guanidine carbonate (984 ppm guanidine), pH 9.4, 3. inoculation, 7 d",0/0
same,Bacterial growth after inoculation,"Paint 1, +0.15% guanidine carbonate (984 ppm guanidine), pH 9.4, 3. inoculation, 14 d",0/0
same,Bacterial growth after inoculation,"Paint 1, +0.2% guanidine carbonate (1312 ppm guanidine), pH 9.6, 1. inoculation, 7 d",0/0
same,Bacterial growth after inoculation,"Paint 1, +0.2% guanidine carbonate (1312 ppm guanidine), pH 9.6, 1. inoculation, 14 d",0/0
same,Bacterial growth after inoculation,"Paint 1, +0.2% guanidine carbonate (1312 ppm guanidine), pH 9.6, 2. inoculation, 7 d",0/0
same,Bacterial growth after inoculation,"Paint 1, +0.2% guanidine carbonate (1312 ppm guanidine), pH 9.6, 2. inoculation, 14 d",0/0
same,Bacterial growth after inoculation,"Paint 1, +0.2% guanidine carbonate (1312 ppm guanidine), pH 9.6, 3. inoculation, 7 d",0/0
same,Bacterial growth after inoculation,"Paint 1, +0.2% guanidine carbonate (1312 ppm guanidine), pH 9.6, 3. inoculation, 14 d",0/0
same,Bacterial growth after inoculation,"Paint 1, +0.25% guanidine carbonate (1640 ppm guanidine), pH 9.7, 1. inoculation, 7 d",0/0
same,Bacterial growth after inoculation,"Paint 1, +0.25% guanidine carbonate (1640 ppm guanidine), pH 9.7, 1. inoculation, 14 d",0/0
same,Bacterial growth after inoculation,"Paint 1, +0.25% guanidine carbonate (1640 ppm guanidine), pH 9.7, 2. inoculation, 7 d",0/0
same,Bacterial growth after inoculation,"Paint 1, +0.25% guanidine carbonate (1640 ppm guanidine), pH 9.7, 2. inoculation, 14 d",0/0
same,Bacterial growth after inoculation,"Paint 1, +0.25% guanidine carbonate (1640 ppm guanidine), pH 9.7, 3. inoculation, 7 d",0/0
same,Bacterial growth after inoculation,"Paint 1, +0.25% guanidine carbonate (1640 ppm guanidine), pH 9.7, 3. inoculation, 14 d",0/0
same,Bacterial growth after inoculation,"Paint 1, +0.3% guanidine carbonate (1968 ppm guanidine), pH 9.7, 1. inoculation, 7 d",0/0
same,Bacterial growth after inoculation,"Paint 1, +0.3% guanidine carbonate (1968 ppm guanidine), pH 9.7, 1. inoculation, 14 d",0/0
same,Bacterial growth after inoculation,"Paint 1, +0.3% guanidine carbonate (1968 ppm guanidine), pH 9.7, 2. inoculation, 7 d",0/0
same,Bacterial growth after inoculation,"Paint 1, +0.3% guanidine carbonate (1968 ppm guanidine), pH 9.7, 2. inoculation, 14 d",0/0
same,Bacterial growth after inoculation,"Paint 1, +0.3% guanidine carbonate (1968 ppm guanidine), pH 9.7, 3. inoculation, 7 d",0/0
same,Bacterial growth after inoculation,"Paint 1, +0.3% guanidine carbonate (1968 ppm guanidine), pH 9.7, 3. inoculation, 14 d",0/0
same,Bacterial growth after inoculation,"Paint 1, +0.4% guanidine carbonate (2624 ppm guanidine), pH 9.9, 1. inoculation, 7 d",0/0
same,Bacterial growth after inoculation,"Paint 1, +0.4% guanidine carbonate (2624 ppm guanidine), pH 9.9, 1. inoculation, 14 d",0/0
same,Bacterial growth after inoculation,"Paint 1, +0.4% guanidine carbonate (2624 ppm guanidine), pH 9.9, 2. inoculation, 7 d",0/0
same,Bacterial growth after inoculation,"Paint 1, +0.4% guanidine carbonate (2624 ppm guanidine), pH 9.9, 2. inoculation, 14 d",0/0
same,Bacterial growth after inoculation,"Paint 1, +0.4% guanidine carbonate (2624 ppm guanidine), pH 9.9, 3. inoculation, 7 d",0/0
same,Bacterial growth after inoculation,"Paint 1, +0.4% guanidine carbonate (2624 ppm guanidine), pH 9.9, 3. inoculation, 14 d",0/0
same,Bacterial growth after inoculation,"Paint 1, +0.5% guanidine carbonate (3280 ppm guanidine), pH 10.1, 1. inoculation, 7 d",0/0
same,Bacterial growth after inoculation,"Paint 1, +0.5% guanidine carbonate (3280 ppm guanidine), pH 10.1, 1. inoculation, 14 d",0/0
same,Bacterial growth after inoculation,"Paint 1, +0.5% guanidine carbonate (3280 ppm guanidine), pH 10.1, 2. inoculation, 7 d",0/0
same,Bacterial growth after inoculation,"Paint 1, +0.5% guanidine carbonate (3280 ppm guanidine), pH 10.1, 2. inoculation, 14 d",0/0
same,Bacterial growth after inoculation,"Paint 1, +0.5% guanidine carbonate (3280 ppm guanidine), pH 10.1, 3. inoculation, 7 d",0/0
same,Bacterial growth after inoculation,"Paint 1, +0.5% guanidine carbonate (3280 ppm guanidine), pH 10.1, 3. inoculation, 14 d",0/0
same,Bacterial growth after inoculation,"Paint 1, +1.0% guanidine carbonate (6560 ppm guanidine), pH 10.4, 1. inoculation, 7 d",0/0
same,Bacterial growth after inoculation,"Paint 1, +1.0% guanidine carbonate (6560 ppm guanidine), pH 10.4, 1. inoculation, 14 d",0/0
same,Bacterial growth after inoculation,"Paint 1, +1.0% guanidine carbonate (6560 ppm guanidine), pH 10.4, 2. inoculation, 7 d",0/0
same,Bacterial growth after inoculation,"Paint 1, +1.0% guanidine carbonate (6560 ppm guanidine), pH 10.4, 2. inoculation, 14 d",0/0
same,Bacterial growth after inoculation,"Paint 1, +1.0% guanidine carbonate (6560 ppm guanidine), pH 10.4, 3. inoculation, 7 d",0/0
same,Bacterial growth after inoculation,"Paint 1, +1.0% guanidine carbonate (6560 ppm guanidine), pH 10.4, 3. inoculation, 14 d",0/0
same,Bacterial growth after inoculation,"Paint 2, +0.1% guanidine carbonate (656 ppm guanidine), pH 8.9, 1. inoculation, 7 d","2 (Light growth, maximum 100 colonies)"
same,Bacterial growth after inoculation,"Paint 2, +0.1% guanidine carbonate (656 ppm guanidine), pH 8.9, 1. inoculation, 14 d",0
same,Bacterial growth after inoculation,"Paint 2, +0.1% guanidine carbonate (656 ppm guanidine), pH 8.9, 2. inoculation, 7 d",6
